The IC50 is the concentration needed to halve the response being measured.

The values below come from PubChem BioAssay AID504542 (Sanford-Burnham Center for Chemical Genomics, 2011).

The test system of the assay is S. cerevisiae TIM10 counterscreen strain, luminescence. Briefly: TIM10 counterscreen strain luminescent signal reducers – S. cerevisiae, uHTS hits, counter-screen for tim10-1 inhibitor project, dose response (AID 504542). (The purpose of a counterscreen is to sort out artefacts and off-target activity.)

As for `CC[C@@H]1CC=C[C@H]2[C@H]1C(=O)N(Cc1ccccc1)[C@H]2c1ccoc1`, the IC50 is 2.5 µM.
The same measure for `COC(=O)C(C(C)=O)C1=C/C(=N\S(=O)(=O)c2ccc(C)cc2)c2ccccc2C1=O` (stereo unspecified): 3.81 µM; for `CCOc1ccc(-n2cc(-c3ccccc3)c3c(=O)[nH]cnc32)cc1`: 5.89 µM; for `Clc1ccc(CNc2nc(CN3CCOCC3)nc3scc(-c4ccccc4)c23)cc1`: 4.96 µM.
To `c1ccc(Nc2cccc(Nc3ccccc3)c2)cc1` belongs 5.02 µM; to `Cc1ccc(NC(=S)/N=C(\N)Nc2nc(C)c3cc(C)ccc3n2)c(C)c1`, 12.1 µM.
On to `CC(C)C(=O)N1CCN(c2ccccc2NC(=O)c2ccc([N+](=O)[O-])o2)CC1`, for which the IC50 is 1.82 µM.
The same measure for `Cc1ccccc1/C=C/C(=O)c1ccc([N+](=O)[O-])o1`: 0.66 µM; for `Cc1ccc(/C(N)=N/OC(=O)c2ccc3c(c2)OCO3)cc1`: 2.42 µM.
To `CCN(CC)C1CC(=O)N(c2cccc(Cl)c2)C1=O` (stereo unspecified) belongs 1.74 µM.
`O=C(c1cc(COc2ccc(F)cc2Cl)on1)N1CCN(c2cnccn2)CC1`: the IC50 is 3.98 µM.
As to `CC1=C/C(=N\OS(=O)(=O)c2ccccc2)C=CC1=O`, the IC50 was 0.26 µM.
To `Cc1onc(-c2ccc3c(c2)OCO3)c1-c1ccc2[nH]ccc2c1` belongs 3.49 µM.
The same measure for `Cc1ccc(OCC(=O)O/N=C(\N)Cc2ccc(Cl)cc2)cc1`: 56.7 µM; for `O=c1c2ccccc2nc(/C=C/c2ccc([N+](=O)[O-])o2)n1CCCO`: 4.49 µM; for `COc1ccc(/C(C)=N/NC(=S)NCCc2ccccc2)cc1`: 7.83 µM.
To `Cc1ccc(NC(=S)Nc2ccc(Cl)c(Cl)c2)c(OC(F)F)c1` belongs 9.07 µM; to `Cc1ccc(F)c([C@H]2C3C=CCC(c4ccccc4)C3C(=O)N2Cc2ccccc2)c1` (stereo partly specified), 6.99 µM.
With `COc1ccc2sc(N(CCCN(C)C)C(=O)c3ccc(S(=O)(=O)N4CCCc5ccccc54)cc3)nc2c1`, the IC50 was 8.76 µM.
To `Cc1cc(/C=C\c2ccc3cc(N(C)C)ccc3[n+]2C)c(C)n1-c1ccccc1` belongs 3.92 µM; to `C[C@@H]1CC=C[C@H]2[C@H]1C(=O)N(Cc1ccccc1)[C@H]2c1ccc(-c2ccoc2)cc1F`, 7.07 µM.
The same measure for `N/C(=N\OC(=O)CCC1CCCC1)c1cccc([N+](=O)[O-])c1`: 8.32 µM.
To `Nc1nc(N)c(C=Nc2ccc(Br)cc2)c(Nc2ccc(Br)cc2)n1` belongs 10.8 µM; to `CCCOc1ccc(N2C(=O)CC(N3CCC(O)(c4cccc(C(F)(F)F)c4)CC3)C2=O)cc1` (stereo unspecified), 3.95 µM; to `O=C(/C=C\c1ccc(-c2ccccc2)o1)c1ccccc1`, 2.39 µM.
Turning to `O=C(O)/C=C/C(=O)c1ccc2c(c1)CCc1ccccc1-2`, the IC50 is 3.32 µM.
To `COc1ccc(Br)cc1[C@H]1[C@H]2C=CC[C@@H](C)[C@@H]2C(=O)N1Cc1ccccc1` belongs 6.86 µM; to `Nc1c(C(=O)Nc2ccccc2)c2nc3ccccc3nc2n1CCCN1CCOCC1`, 9.74 µM; to `CN(CCCC(=O)O)c1ccc(N=Nc2ccc([N+](=O)[O-])cc2)cc1`, 14.5 µM.
The same measure for `O=c1oc2ccccc2c(O)c1/C=C1\C=Nc2ccccc21`: 6.1 µM.
The same measure for `CC(C)c1nnc(NC(=O)CCS(=O)(=O)c2nc(-c3cccs3)cc(C(F)(F)F)n2)s1`: 4.84 µM; for `CCOc1ccccc1NC(=O)/C=C/C(N)=O`: 3.32 µM.
For `c1ccc(Nc2cccc(Nc3ccccc3)n2)cc1`, the IC50 is 5.97 µM.
The same measure for `Nc1nc(-c2ccc(Br)cc2)cs1`: 10.4 µM; for `N/C(=N\OC(=O)CCC1CCCC1)c1ccccc1`: 16.8 µM; for `COc1ccc(-c2cc(C3CC3)nc3sc(C#N)c(N)c23)cc1`: 4.46 µM.
The same measure for `O=C(NNC(=S)Nc1cccc(C(F)(F)F)c1)c1ccc(Cl)cc1Cl`: 8.13 µM; for `COc1cc(C(=O)Nc2ccc(Cl)c(C(F)(F)F)c2)cc(OC)c1OC`: 27.1 µM; for `O=C(OCn1ncc(Br)c(Br)c1=O)c1ccccc1Cl`: 1.41 µM.
The same measure for `Cc1nc(Nc2ccccc2)sc1-c1ccccc1`: 3.09 µM.
As for `CCCCCCC(=O)N(O)C1CC(=O)N(c2ccc(C)cc2)C1=O` (stereo unspecified), the IC50 was 4.38 µM.
